Data set [1] concerns the target Mitogen-activated protein kinase 14 (Homo sapiens, UniProt Q16539).
Description: Inhibitory concentration against alpha mitogen activated protein kinase p38 activity
Data set [2] deals with Epidermal growth factor receptor (Homo sapiens, UniProt P00533). Put plainly: Inhibitory concentration against Epidermal growth factor receptor tyrosine kinase activity.
The species named for data set [3] is Homo sapiens. Put plainly: Concentration required to inhibit TNF-alpha production was determined in human whole blood. The format is functional.
A short description of data set [4]: Clearance after oral dosing at 1 mg/kg. The class given is ADME, organism-based. Also on record: dose 1 mg/kg, route oral. Conditions: rat, in vivo, read-out: Clearance.
Data set [5] in a line: Clearance after i.v. dosing at 1 mg/kg. The format is ADME, organism-based. Conditions: rat, in vivo, iv. Also on record: dose 1 mg/kg, route intravenous.
Data set [6] can be described thus: Volume of distribution at steady state after oral dosing at 1 mg/kg. The settings on record: rat, in vivo. The class given is ADME, organism-based. Also on record: dose 1 mg/kg, route oral.
The nature of data set [7]: oral bioavailability after oral dosing at 1 mg/kg. The class given is ADME, organism-based. Conditions: rat, in vivo, read-out: Bioavailabiility.
Data set [8] is described as follows: Volume of distribution at steady state after i.v. dosing at 1 mg/kg. The class given is ADME, organism-based. Also on record: dose 1 mg/kg, route intravenous. Conditions: rat, in vivo, iv, read-out: Distribution.
Data set [9] can be described thus: oral bioavailability after p.o. dosing at 1 mg/kg. The settings on record: rat, in vivo, read-out: Bioavailabiility.
Data set [10] can be described thus: Aqueous solubility.
Data set [11] can be described thus: Log D value at pH 7.4. The format is physicochemical. Conditions: buffer.
Data set [12] in a line: Protein binding was determined in rat plasma. The format is ADME, cell-free.

This note sets out measurements from ChEMBL document CHEMBL1138000, “Novel, potent and selective anilinoquinazoline and anilinopyrimidine inhibitors of p38 MAP kinase” (Bioorg Med Chem Lett, 2004).

Converted amounts (≈) assume the structure as drawn.

Chain of Mitogen-activated protein kinase 14 (Q16539 whole entry): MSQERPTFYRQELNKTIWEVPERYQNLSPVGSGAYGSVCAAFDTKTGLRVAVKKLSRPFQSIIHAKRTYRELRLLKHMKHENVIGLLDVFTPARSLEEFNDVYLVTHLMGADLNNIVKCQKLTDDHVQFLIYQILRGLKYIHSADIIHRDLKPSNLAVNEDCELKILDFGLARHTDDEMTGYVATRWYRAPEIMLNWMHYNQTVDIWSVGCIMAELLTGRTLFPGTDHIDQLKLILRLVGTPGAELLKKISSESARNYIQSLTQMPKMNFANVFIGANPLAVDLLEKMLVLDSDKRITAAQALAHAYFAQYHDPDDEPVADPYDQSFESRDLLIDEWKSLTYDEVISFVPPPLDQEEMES
Chain of Epidermal growth factor receptor (P00533 whole entry): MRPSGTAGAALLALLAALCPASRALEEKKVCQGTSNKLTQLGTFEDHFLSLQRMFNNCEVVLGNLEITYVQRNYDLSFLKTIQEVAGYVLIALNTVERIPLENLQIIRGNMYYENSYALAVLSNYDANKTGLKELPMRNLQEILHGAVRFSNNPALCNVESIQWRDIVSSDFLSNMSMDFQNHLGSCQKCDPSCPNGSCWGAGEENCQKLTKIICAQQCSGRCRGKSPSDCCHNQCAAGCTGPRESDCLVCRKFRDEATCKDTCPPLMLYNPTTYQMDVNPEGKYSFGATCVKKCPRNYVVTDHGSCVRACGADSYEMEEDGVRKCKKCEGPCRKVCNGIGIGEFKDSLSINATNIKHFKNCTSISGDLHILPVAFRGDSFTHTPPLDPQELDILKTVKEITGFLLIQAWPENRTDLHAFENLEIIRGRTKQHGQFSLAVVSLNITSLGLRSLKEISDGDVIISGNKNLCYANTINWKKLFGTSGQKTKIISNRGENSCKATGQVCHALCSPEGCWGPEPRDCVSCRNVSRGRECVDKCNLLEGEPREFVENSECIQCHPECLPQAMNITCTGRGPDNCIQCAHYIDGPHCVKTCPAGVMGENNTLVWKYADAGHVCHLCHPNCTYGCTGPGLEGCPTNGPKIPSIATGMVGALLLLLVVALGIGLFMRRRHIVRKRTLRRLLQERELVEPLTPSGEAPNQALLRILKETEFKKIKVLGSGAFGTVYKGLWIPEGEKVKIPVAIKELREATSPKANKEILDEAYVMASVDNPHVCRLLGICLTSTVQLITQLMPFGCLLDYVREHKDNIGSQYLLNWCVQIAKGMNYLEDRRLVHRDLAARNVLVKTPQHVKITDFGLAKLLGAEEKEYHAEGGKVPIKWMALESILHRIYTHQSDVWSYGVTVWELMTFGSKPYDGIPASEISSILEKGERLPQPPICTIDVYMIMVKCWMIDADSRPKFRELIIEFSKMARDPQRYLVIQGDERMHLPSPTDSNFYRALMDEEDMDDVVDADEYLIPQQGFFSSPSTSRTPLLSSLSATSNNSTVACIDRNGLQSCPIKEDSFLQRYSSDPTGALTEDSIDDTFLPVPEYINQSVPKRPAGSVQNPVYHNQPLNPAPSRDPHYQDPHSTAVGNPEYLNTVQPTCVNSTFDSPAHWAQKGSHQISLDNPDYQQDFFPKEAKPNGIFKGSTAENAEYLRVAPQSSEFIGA

The IC50 is the concentration that gives 50% inhibition. Read a high IC50 as a need for much substance. On to `COc1cc2ncnc(Nc3cccc(NC(=O)c4ccccc4)c3F)c2cc1OC`, for which the results for the 50% inhibitory concentration (IC50) in data set [1], in data set [2] and in data set [3] were 690 nM, 2800 nM and more than 50000 nM, respectively.
Regarding `C=CCN(C)c1nccc(Nc2cc(NC(=O)c3ccnc(N4CCOCC4)c3)ccc2C)n1`, the half-inhibitory concentration (IC50) in data set [1] was 110 nM; in data set [3], more than 50000 nM.
Turning to `COc1cc2ncnc(Nc3cc(NC(=O)c4cccc(N5CCOCC5)c4)ccc3C)c2cc1OC`, the results for the IC50 in data set [1], in data set [2] and in data set [3] were 10 nM, more than 33000 nM and 16000 nM, respectively.
As for `Cc1ccc(NC(=O)c2ccnc(N3CCOCC3)c2)cc1Nc1cc(N2CCCN(C)CC2)ncn1`, the IC50 is 1220 nM in data set [1] and more than 50000 nM in [3].
As for `COc1cc2ncnc(Nc3cc(NC(=O)c4ccnc(N5CCOCC5)c4)ccc3C)c2cc1OCCN1CCOCC1`, the results for the 50% inhibitory concentration (IC50) in data set [1] and in data set [3] were 20 nM and 7800 nM, respectively.
As for `COc1cc2ncnc(Nc3cc(NC(=O)c4ccccc4)ccc3C)c2cc1OC`, the concentration for half-maximal inhibition (IC50) in data set [1] is 70 nM; in [2], more than 33000 nM; in data set [3], 21000 nM.
With `COc1cc2ncnc(Nc3ccc(Cl)c(NC(=O)c4cccc(N(C)C)c4)c3)c2cc1OC`, the IC50 in [1] was 1690 nM; in data set [2] it was 1000 nM; in data set [3], more than 50000 nM.
Regarding `COc1cc2ncnc(Nc3cc(NC(=O)c4ccccc4)c(Cl)cc3F)c2cc1OC`, the IC50 in data set [1] was 510 nM; in data set [3], more than 50000 nM.
For `CCCN1CCC(Oc2nccc(Nc3cc(NC(=O)c4ccnc(N5CCOCC5)c4)ccc3C)n2)CC1`, the values for the IC50 in data set [1] and in data set [3] were 50 nM and 410 nM, respectively.
As to `Cc1ccc(NC(=O)c2ccnc(N3CCOCC3)c2)cc1Nc1ccncn1`, the figures for the IC50 in data set [1] and in data set [3] were 210 nM and 27000 nM, respectively.
For `Cc1ccc(NC(=O)c2ccnc(N3CCOCC3)c2)cc1Nc1ccnc(OC2CCN(C)CC2)n1`, the 50% inhibitory concentration (IC50) in data set [1] stood at 40 nM; in data set [3], 500 nM.
Turning to `COc1cc2ncnc(Nc3cc(NC(=O)c4ccccc4)ccc3Cl)c2cc1OC`, the figures for the half-inhibitory concentration (IC50) in data set [1], in data set [2] and in [3] were 80 nM, 11000 nM and more than 50000 nM, respectively.
Turning to `Cc1ccc(NC(=O)c2ccnc(N3CCOCC3)c2)cc1Nc1ccnc(Cl)n1`, the values for the half-inhibitory concentration (IC50) in data set [1] and in [3] were 10 nM and 11000 nM, respectively.
On to `Cc1ccc(NC(=O)c2ccnc(N3CCOCC3)c2)cc1Nc1cc(Cl)ncn1`, for which the IC50 in data set [1] was 240 nM; in [3], more than 50000 nM.
`COc1cc2ncnc(Nc3cc(NC(=O)c4ccccc4)c(F)cc3F)c2cc1OC`: the half-maximal inhibitory concentration (IC50) is 50 nM in [1], 490 nM in data set [2] and more than 50000 nM in data set [3].
Consider `Cc1ccc(NC(=O)c2ccnc(N3CCOCC3)c2)cc1Nc1ccnc(OCCCN(C)C)n1`, for which the IC50 in data set [1] amounted to 30 nM; in data set [3], 3200 nM.
`COc1cc2ncnc(Nc3ccc(C)c(NC(=O)c4ccccc4)c3)c2cc1OC`: the half-inhibitory concentration (IC50) is 2090 nM in data set [1], 3200 nM in [2] and more than 50000 nM in data set [3].
In the same order, the values of `COc1cc2ncnc(Nc3cccc(NC(=O)c4ccccc4)c3)c2cc1OC` are 140 nM, 5600 nM and more than 50000 nM.
On to `Cc1ccc(NC(=O)c2ccnc(N3CCOCC3)c2)cc1Nc1cc(NCCCN2CCCC2)ncn1`, for which the results for the IC50 in data set [1] and in [3] were 450 nM and more than 50000 nM, respectively.
As to `COc1cc2ncnc(Nc3cc(NC(=O)c4cccc(N(C)C)c4)ccc3Cl)c2cc1OC`, the half-inhibitory concentration (IC50) in [1] was 40 nM; in data set [2], 29000 nM; in data set [3] it was more than 50000 nM.
As a reminder, the clearance is the volume of plasma or blood freed of the substance per unit of time. A lower clearance goes with inefficient removal. Regarding `CSc1nccc(Nc2cc(NC(=O)c3cc(F)cc(N4CCOCC4)c3)ccc2C)n1`, in data set [4], the CL/F came out at 25 mL/min/kg. In addition, the clearance in data set [5] came out at 25 mL/min/kg. Also, the IC50 was found to be 10 nM in [1] and 3400 nM in [3]. Moreover, the Distribution in data set [6] was determined as 0.8 L/kg. Also, the bioavailability in data set [7] and in data set [9] was 26% each time. For the same molecule, in [8], the Vd came to 0.8 L/kg.
`COc1cc2ncnc(Nc3cc(NC(=O)c4ccnc(N5CCOCC5)c4)ccc3C)c2cc1OCCN(C)C`: the IC50 came out at 30 nM in data set [1] and 6900 nM in data set [3].
Consider `CCN(CC)CCCNc1cc(Nc2cc(NC(=O)c3ccnc(N4CCOCC4)c3)ccc2C)ncn1`, for which the IC50 in data set [1] came to 280 nM; in [3], 23000 nM.
As to `COc1cc2ncnc(Nc3cc(NC(=O)c4ccnc(N5CCOCC5)c4)ccc3C)c2cc1OCCN1CCCCC1`, the IC50 in [1] was determined as 50 nM; in data set [3], 4600 nM.
Consider `Cc1ccc(NC(=O)c2ccnc(N3CCOCC3)c2)cc1Nc1ccnc(NCCCN2CCOCC2)n1`, for which the IC50 is 90 nM in data set [1] and more than 50000 nM in [3].
Regarding `COc1cc2ncnc(Nc3ccc(Cl)c(NC(=O)c4ccccc4)c3)c2cc1OC`, the IC50 in data set [1] is 610 nM; in data set [2] it was 2200 nM; in data set [3], more than 50000 nM.
For the molecule `CCCN1CCC(Oc2nccc(Nc3cc(NC(=O)c4cccc(N5CCOCC5)c4)ccc3C)n2)CC1`, the IC50 stood at 40 nM in data set [1] and 300 nM in data set [3].
In the case of `Cc1ccc(NC(=O)c2ccnc(N3CCOCC3)c2)cc1Nc1ccnc(OCC(C)(C)CN(C)C)n1`, the IC50 in data set [1] was determined as 70 nM; in data set [3] it was 3700 nM.
Usually solubility stands for how much of the substance goes into solution per volume. High values mean a readily soluble substance, low ones a poorly soluble substance. The term logD denotes the decadic logarithm of the distribution of all forms, ionised or not, between an organic phase and buffer at a given pH. For `COc1cc2ncnc(Nc3cc(NC(=O)c4ccnc(N5CCOCC5)c4)ccc3C)c2cc1OCCN(C(C)C)C(C)C`, in data set [10], the concentration in solution (solubility) came to 240 µM (≈ 147 µg/mL). For the same molecule, the IC50 amounted to 50 nM in [1] and 3500 nM in data set [3]. This molecule yielded a pH-dependent lipophilicity (logD) in data set [11] of 3.5. Moreover, the Binding in [12] is 83%.
On to `COc1cc2ncnc(Nc3cc(NC(=O)c4cccc(N(C)C)c4)ccc3C)c2cc1OC`, for which the 50% inhibitory concentration (IC50) in [1] is 30 nM; in [2] it was more than 33000 nM; in data set [3], 35000 nM.
With `Cc1ccc(NC(=O)c2ccnc(N3CCOCC3)c2)cc1Nc1ccnc(OCC2CCCN(C)C2)n1` (configuration not stated), the results for the half-maximal inhibitory concentration (IC50) in [1] and in data set [3] were 30 nM and 1100 nM, respectively.
In the case of `COc1cc2ncnc(Nc3cccc(NC(=O)c4cccc(N(C)C)c4)c3)c2cc1OC`, the concentration for half-maximal inhibition (IC50) is 210 nM in [1], more than 33000 nM in [2] and more than 50000 nM in [3].
As to `Cc1ccc(NC(=O)c2ccnc(N3CCOCC3)c2)cc1Nc1ccnc(N(C)C2CCN(C)CC2)n1`, the IC50 in [1] was found to be 80 nM; in data set [3], 5300 nM.
With `Cc1ccc(NC(=O)c2ccnc(N3CCOCC3)c2)cc1Nc1ccnc(NCCCN2CCCC2)n1`, the IC50 was 50 nM in data set [1] and 16000 nM in [3].
The molecule `C[S+]([O-])c1ccc(-c2nc(-c3ccc(F)cc3)c(-c3ccncc3)[nH]2)cc1` (configuration not stated) [SB-203580] displayed a half-inhibitory concentration (IC50) in data set [3] of 2000 nM.
Consider `COc1cc2ncnc(Nc3cccc(Cl)c3)c2cc1OC` [TYRPHOSTIN AG-1478], for which the half-maximal inhibitory concentration (IC50) in data set [1] was 560 nM; in [3], more than 50000 nM.
